Columns and labels:
[1] = test system: EC's as compared to SMC's; conditions: EC's versus SMC's; cited from earlier work
[2] = test system: cells seeded in 96-well microplate; conditions: control samples
Description: A potential cytotoxicity study of the electro-grafted coatings is conducted in accordance with the standard ISO 10993-5.
The extraction was performed in triplicate with the culture medium (DMEM) containing fetal calf serum, in sterile, closed, chemically inert containers during 96 h at 37° C.
The extract and its dilutions (50% and 10%) were placed on the cells and left in contact for 24 hours, at least. The cytotoxicity was determined by a vital dye, the neutral red.
The means of determination retained were the general morphology of the cell (qualitative evaluation) and the percentage of cell viability (quantitative evaluation) based on that the absorbance obtain by reading at 540 nm, is proportional to the number of living cells (quantitative analysis).
Positive control: the control was performed for each test with a product which provided a reproducible cytotoxic effect under the conditions of the test: a solution of phenol at 3.2 g/l in culture medium (DMEM). The test complied if the percentage of mortality was about 100%.
The test complied if the percentage of cell viability is 100%.

Compound	Threshold toxic concentration [1]	Death % [2] [%]	Qualitative evaluation (neutral red) [2]	Viability % [2] [%]
CC(=O)O[C@H]1C(=O)[C@@]2(C)[C@H]([C@H](OC(=O)c3ccccc3)[C@]3(O)C[C@H](OC(=O)[C@H](O)[C@@H](NC(=O)c4ccccc4)c4ccccc4)C(C)=C1C3(C)C)[C@]1(OC(C)=O)CO[C@@H]1C[C@@H]2O [Paclitaxel]	comparable or even lower against EC's as compared to SMC's			
Oc1ccccc1 [Positive control, phenol]		99	Cells don't	1
CO[C@H]1C[C@@H]2CC[C@@H](C)[C@@](O)(O2)C(=O)C(=O)N2CCCC[C@H]2C(=O)O[C@H]([C@H](C)C[C@@H]2CC[C@@H](O)[C@H](OC)C2)CC(=O)[C@H](C)/C=C(\C)[C@@H](O)[C@@H](OC)C(=O)[C@H](C)C[C@H](C)/C=C/C=C/C=C/1C [Sirolimus]	comparable or even lower against EC's as compared to SMC's			

Source: patent US20070288088A1, “Drug eluting stent with a biodegradable release layer attached with an electro-grafted primer coating” (priority 2006, published 2007)
